Data as given in patent publication US20080113956A1, “Substituted Porphyrins” (priority 1997, published 2008).
Like-named read-outs stand apart in the source and are kept apart here.

Assays:
[1] = SOD-like activity in vitro (xanthine/xanthine oxidase, ferricytochrome c; McCord and Fridovich); format: biochemical; conditions: for rate of dismutation (kcat): Example VII
Description: (§1) SOD activity can be monitored in the presence and absence of EDTA using the method of McCord and Fridovich (J. Biol. Chem. 244:6049 (1969)). The efficacy of a mimetic can also be determined by measuring the effect of the mimetic on the aerobic growth of a SOD null E. coli strain versus a parental strain lacking the specific mutations. Specifically, parental E. coli (AB1157) and SOD null E. coli. (JI132) can be grown in M9 medium containing 0.2% casamino acids and 0.2% glucose at pH 7.0 and 37° C.; growth can be monitored in terms of turbidity followed at 700 nm.
The superoxide dismutase activity of the mimetics of the invention depends on a number of factors, including thermodynamic factors (eg the metal-centered redox-potential see FIG. 1)), and kinetic factors (eg electrostatic facilitation).
Superoxide dismuting activity. The SOD-like activities were measured using the xanthine/xanthine oxidase system as a source of O2^− and ferricytochrome c as its indicating scavenger (McCord et al, J. Biol. Chem. 244:6049 (1969)). O2— was produced at the rate of 1.2 μM per minute and reduction of ferricytochrome c was followed at 550 nm. Assays were conducted in presence of 0.1 mM EDTA in 0.05 M phosphate buffer (pH 7.8). Rate constants for the reaction of the compounds were based upon competition with […] cytochrome c, kcyt c=2.6×10^5 M^−1s^−1 (Butler et al, J. Biol. Chem. 257:10747 (1982)). All measurements were done at 25° C. Cytochrome c concentration was at least 10^3-fold higher than the concentrations of the SOD mimics and the rates were linear for at least two minutes, during which the compounds intercepted ˜100 equivalents of O2^−, thus confirming the catalytic nature of O2^− dismutation in presence of the mimics.
Superoxide dismuting activities. SOD-like activities were measured as described previously, based on competition with cytochrome c (McCord et al, J. Biol. Chem. 244:6049 (1969)). MnClxTE-2-PyP^5+ SOD-like activities are reported in Table 5, IC50 (M) representing the concentration for one unit of activity (or the concentration that causes 50% inhibition of cytochrome c reduction by O2^−) and kcat (M^−1s^−1) representing the rate constant for the superoxide dismutation reaction. The SOD-like activity per mole of MnCl4TE-2-PyP^5 is approximately 2-, 7- and 100-fold higher than MnOBTMPyP^4+, MnTM-2-PyP^5+ and MnTM-4PyP^5+, respectively (Faulkner et al, J. Biol. Chem. 269:23471 (1994); Batinic-Haberle et al, Arch. Biochem. Biophys. 343:225 (1997); Batinic-Haberle et al, J. Biol. Chem. 273:24521 (1998)). The SOD-like activity of MnCl4TE-2-PyP^5+ represents 20% of the activity of the Cu,Zn-SOD enzyme on a molar basis (40% per active site considering that the enzyme has two active sites) (Klug-Roth et al, J. Am. Chem. Soc. 95:2786 (1973)).

[2] = Electrochemistry: metal-centered redox potential; format: physicochemical; conditions: for Redox Potential (E1/2): metal centered, pH 7.8 if not otherwise specified; for redox potential: text of Example VIII, unit not given
Description: Electrochemistry. The electrochemical characterization was performed as described previously on a Voltammetric Analyzer Model 600 (CH instrument) using a glassy carbon electrode (Ag/AgCl reference and Pt auxiliary electrodes), at 0.5 mM porphyrin, pH 7.8 (0.05 M phosphate buffer), 0.1 M NaCl. The potentials were standardized against potassium ferricyanide/potassium ferrocyanide couple (Batinic-Haberle et al, Arch. Biochem. Biophys. 343:225 (1997); Kolthof et al, J. Phys. Chem. 39:945 (1974)).
Electrochemistry. The metal-centered redox behavior of all metalloporphyrin products was reversible. The half-wave potentials (E^O1/2) were calculated as the average of the cathodic and anodic peaks and are given in mV vs NHE (Table 5). The average shift per chlorine is +55 mV (Table 5), which is in agreement with the values previously reported for H2TPP derivatives (between −50 and +70 mV) (Sen et al, Chem. Soc. Faraday Trans. 93:4281 (1997); Autret et al. J. Chem. Soc. Dalton Trans. 2793 (1996); Hariprasad et al, J. Chem. Soc. Dalton Trans. 3429 (1996); Tagliatesta et al, Inorg. Chem. 35:5570 (1996); Ghosh, J. Am. Chem. Soc. 117:4691 (1995); Takeuchi et al, J. Am. Chem. Soc. 116:9730 (1994); Binstead et al, Inorg. Chem. 30:1259 (1991); Giraudeau et al, J. Am. Chem. Soc. 101:3857 (1979)). This shift appears to be higher (˜+65 mV) between 0 and 1, and between 2 and 3 chlorines (Table 5). […] The manganese redox state of MnCl4TE-2-PyP^5 (E^O1/2=+448 mV) and MnOBTMPyP^4+ (E^O1.2=+480 mV) is 3+ and 2+, respectively. This difference may be explained by their difference in terms of redox potential (˜30 mV) but also by structural considerations, for instance an increased distortion of the porphyrin ring in the case of MnOBTMPyP^4+. (Batinic-Haberle et al, Arch. Biochem. Biophys. 343:225 (1997); Ochsenbein et al, Angew. Chem. Int. Ed. Engl. 33:348 (1994)).

[3] = test system: SOD null E. coli (JI132); test: Aerobic growth of SOD null E. coli strain versus parental strain; format: cell-based; conditions: for aerobic growth (A700) of SOD null E. coli cells: 20 μM, glucose minimal medium (M9) plus 5 essential amino acids, JI132
Description: FIG. 3. SOD activity in vivo (E. coli) of 1, 2, 3* and 4* (20 μM) in minimal medium (mixture of atropoisomers, JI=SOD deficient strain, AB parental strain).
as §1
The activity in vivo of the mimetics of the invention can be tested on an E. coli strain deleted of the genes coding for both the MnSOD and FeSOD. In this assay, the efficacy of a mimetic is determined by measuring the effect of the mimetic on the aerobic growth of a SOD null E. coli strain versus a parental strain. Specifically, parental E. coli (AB1157) and SOD null E. coli. (JI132) are grown in M9 medium containing 0.2% casamino acids and 0.2% glucose at pH 7.0 and 37° C.; growth is monitored in terms of turbidity followed at 700 nm.

[4] = vs NHE, literature comparators, cited from earlier work

Molecule	rate of dismutation (kcat) [1] [M⁻¹ s⁻¹]	SOD activity in vitro relative to the para compound 1 ([1]; in vitro enzymatic assay)	Redox Potential (E1/2) ([2]; vs NHE)	redox potential [2]	aerobic growth (A700) of SOD null E. coli cells ([3]; listed as 3)	toxicity in vivo (E. coli) ([3]; FIG. 3)	E°1/2 half-wave potential of comparison compounds ([4]; listed as MnTM-2-PyP^3−)	kcat rate constant for the superoxide dismutation reaction ([1]; 0.1 mM EDTA, 0.05 M phosphate buffer pH 7.8, 25° C.)	IC50 ([1]; 0.1 mM EDTA, 0.05 M phosphate buffer pH 7.8, 25° C., read-out: IC50 concentration that causes 50% inhibition of cytochrome c reduction by O2^−) [nM]	E°1/2 half-wave potential ([2]; vs NHE, 0.5 mM porphyrin, 0.1 M NaCl, 0.05 M phosphate buffer (pH 7.8))	aerobic growth (A700) of SOD null E. coli cells [3]	E1/2 one-electron metal-centered redox-potential ([2]; vs NHE, listed as 1)	half-wave potential (E1/2) ([2]; vs normal hydrogen electrode (NHE), Example VII)	aerobic growth (A700) of SOD null E. coli cells ([3]; listed as 1)	growth of SOD-deficient Escherichia coli ([3]; Example VII)	E°1/2 half-wave potential of comparison compounds [4]	E°1/2 half-wave potential of comparison compounds ([4]; listed as MnTM-4-PyP^5−)
manganese(III) 5,10,15,20-tetrakis(N-methylpyridyl)porphyrin [MnTM-2-PyP^5+]	6e+07	more than an order of magnitude more active	+0.22 V	+0.22	increase in A700	decreased toxicity	+220 mV										
CC[n+]1ccccc1-c1c2nc(c(-c3cccc[n+]3CC)c3ccc([n-]3)c(-c3cccc[n+]3CC)c3nc(c(-c4cccc[n+]4CC)c4ccc1[n-]4)C=C3)C=C2.[Mn+3] [MnTE-2-PyP^5+, manganic meso-tetrakis-(N-ethylpyridinium-2-yl)porphyrin]								5.7 10^7 M^−1 s^−1	45	+228 mV	increase in A700						
manganese(III) 5,10,15,20-tetrakis(N-methylpyridyl)porphyrin [MnTM-4-PyP^5+, reference compound]	3.8e+06		+0.06 V	+0.06								+0.060 V	+0.060 V	did not show an increase in A700	inhibited growth	+60 mV	+060 mV
